Experimental data: patent US5602156A, “Method for inhibiting metalloproteinase expression” (The United States of America as represented by the …, priority 1994, dated 1997)
“Also recorded” adds a separate entry of the source.

What was measured:
MMP-2 [1] = experiment: Gelatin zymography of conditioned media from human cancer cell lines (gelatinase activity); assay type: cell-based; conditions: for reduction of activated MMP-2: 20 μM compound 1
Protocol: (§1) Conditioned media for zymogram and Western blot analysis were produced under serum-free conditions. Cells (2 million) were plated in 25 cm^2 flasks in serum-containing medium and cultured overnight. Serum-containingmedium was removed and the cell monolayers were washed twice with DMEM/ITS (DMEM containing insulin (5 μg/mL), transferrin (5 μg/mL), and selenium (5 ng/mL)). The resultant cells were fed with 3 mL of DMEM/ITS and additives as described in the Examples for two 24 hour periods. Conditioned media samples were collected at 24 hours and cells were refed with fresh DMEM/ITS containing the described additives for an additional 24 hours. Conditioned media samples were centrifuged to remove cells and debris then frozen at -20° C. until use. Freeze and thaw cycles of the conditioned media were limited to no more than two.
Quantitation of the effect was evaluated by laser densitometry of the resultant zymograms.
Aliquots of conditioned medium (15 μL) were electrophoresed on gelatin-containing 10% PAGE gels under nonreducing but denaturing conditions. These conditions allow the different gelatin-degrading species (MMPs) to separate by size. […] Bands of clearing, seen after Coomassie blue staining correspond to areas of gelatinase activity.
OVCAR3 conditioned media samples were concentrated 10-fold prior to zymography.
Known concentrated conditioned medium from HT1080 cells was used for identification of the gelatinase species as marked in FIG. 1A: 92 kDa, gelatinase B/MMP-9; 72 kDa, gelatinase A/MMP-2 latent form; 65 kDa intermediate and 62 kDa activated forms of MMP-2. The activated form of MMP-2 results from cleavage of the amino terminal domain.
Lane 1 corresponds to cells treated only with 0.05% DMSO as a control.
Quantitation of the zymograms in FIGS. 1A-1C were carded out using laser densitometry.
The effect of structural analogs on the gelatinase activity of A2058 cells was similarly evaluated.

MMP-2 [2] = experiment: Western immunoblot of MMP-2 species in conditioned media; assay type: cell-based, human
Protocol: as §1
This example illustrates the dose-dependent effects of compound 1 on the presence of MMP-2 and its activated species. Western immunoblots were used to detect the effect of compound 1 on the presence of MMP-2 and its activated species and for crude quantitation of MMP-2 presence.
A2058 and HT1080 conditioned media samples were concentrated 10-fold using ultrafiltration units excluding material of less than 10 or 30 kDa in molecular weight. Aliquots of 15 μL were electrophoresed on 4-20% gradient PAGE gels, electrically transferred to membranes and immunoblotted with specific polyclonal antibody to proMMP-2. This antibody, made to the MMP-2/TIMP-2 complex recognizes the latent and activated MMP-2 species and crossreacts with TIMP-2 (21 kDa).

MMP-2 [3] = experiment: Northern blot of MMP-2 mRNA from A2058 cells; assay type: cell-based, human; conditions: 2 μM; for inhibition in MMP-2 transcription: corrected for loading (GAPDH)
Protocol: This example illustrates the effect of compound 1 on MMP-1 and MMP-2 mRNA from A2058 cells using Northern blot analysis.
Total cytoplasmic RNA was purified from A2058 cells using cesium chloride density centrifugation. Cells were treated with DMSO vehicle (0.05 %) or compound 1 (2 μM) for 24 or 48 hr. Total RNA yields from treated and control cells (μg/10^6 cells) were similar. Aliquots (5 μg) of total RNA were denatured and separated on formaldehyde-1% agarose slab gels, passively transferred to GeneScreen, and crosslinked using ultraviolet light exposure. RNA was hybridized in buffer (50% deionized formamide, 5x SSC, 10 mM Tris HCl pH 7.5, 1x Denharts solution without albumin, 1.0% SDS, and 0.125 mg/mL salmon sperm DNA) containing 10^6 counts/mL of ^32 P- labeled probe of either MMP-2, MMP-1, or with GAPDH which was used as a measure of RNA load. Probes were labeled to high specific activity with ^32 P-dCTP using a random primer labeling protocol. The cDNA probes for the MMP-2, MMP-1, and GAPDH have been described. See, Brown, et al., Cancer Res. 50:6184-6191 (1990); Templeton, et at., Cancer Res. 50:5431-5437 (1990); and Fort, et al., Nucleic Acids Res. 13:1431-1441 (1985). Radiolabeled bands were quantitated using laser densitometric analysis of autoradiography bands. Numeric data are presented as percent inhibition of IVase or interstitial collagenase expression corrected for loading using GAPDH.

gelatinase activity = experiment: Gelatin zymography of A2058 and HT1080 cells, compound 1 with or without TGF-β1 (results in words); assay type: cell-based, human
Protocol: A2058 and HT1080 cells were incubated with compound 1 (2 μM), with or without TGF-β1 (5 ng/mL) for 24 and 48 hours prior to harvest of conditioned media. Aliquots were subjected to gelatin zymography as described in Example 1. Known concentrated conditioned medium from HT1080 cells was used for identification of the gelatinase species (92 kDa, gelatinase B/MMP-9; 72 kDa, gelatinase A/MMP-2 latent form; 65 kDa intermediate and 62 kDa activated forms of MMP-2).
Lane 1 is the control resulting from treatment of the cells with 0.1% DMSO. Lanes 2 and 3 correspond to those cells which are treated with 2 μM compound 1 in the absence of TGF-β1 for 24 and 48 hours, respectively. Lane 4 corresponds to cells which have been treated with TGF-β1 in the absence of compound 1. Lane 5 corresponds to cells which have been treated with TGF-β1 for 48 hours with compound 1 being added to the incubation mixture for the final 24 hours. Lane 6 corresponds to cells which have been treated for 48 hours with both TGF-β1 and compound 1.

[4] = tested on: receptor-operated and voltage-gated calcium influx; conditions: cited from earlier work
[5] = tested on: proliferation and metastasis; conditions: cited from earlier work

SMILES: NC(=O)c1nnn(Cc2cc(Cl)c(C(=O)c3ccc(Cl)cc3)c(Cl)c2)c1N [Compound 1, 5-amino-l-(4-(4-chlorobenzoyl)-3,5-dichlorobenzyl)-1,2,3-triazole-4-carboxamide]
- MMP-2 activity (MMP-2 [1]; A2058, 10 μM (FIG. 1E)): reduced MMP-2 activity
- reduction of activated MMP-2 (MMP-2 [1]; A2058): almost complete reduction
- reduction of activated MMP-2 (MMP-2 [1]; HT1080): 75%
- shift of MMP species (MMP-2 [1]; HT1080 cell line): shift to activated species with subsequent decrease in total activity
- reduction of activated MMP-2 (MMP-2 [1]; OVCAR3): almost complete reduction
- reduction in activity of all MMP-2 species (MMP-2 [1]; all cell lines (HT1080, A2058, OVCAR3), normalized to DMSO control): greater than 80%
- reduction of MMP activity (MMP-2 [1]; three human cancer cell lines, 0.2-20 μM): dose dependent reduction of MMP activity
- inhibition of MMP-2 gelatinase activity (FIG. 1) (MMP-2 [1]; zymograms of FIG. 1): dose-dependent inhibition
- presence of the MMP-2 species (MMP-2 [2]; A2058 and HT1080, FIG. 4): dose-dependent reduction of the presence of the MMP-2 species
- presence of the MMP-2 species (MMP-2 [2]; A2058 and HT1080, FIG. 4, listed as compound 1): dose-dependent
- presence of the MMP-2 species (MMP-2 [2]; after incubation with 20 μM compound 1): more complete reduction of all species
- shift of MMP-2 species (MMP-2 [2]; before more complete reduction of all species): shift to the lower molecular weight activated species
- expression of type IV collagenase/gelatinase A MMP-2 (MMP-2 [3]): inhibits the expression
- inhibition in MMP-2 transcription (MMP-2 [3]; 24 hr): greater than 50%
- inhibition in MMP-2 transcription (MMP-2 [3]; 48 hr): greater than 50%
- reduction of gelatinase activity (gelatinase activity; A2058 and HT1080, 2 μM, 24 and 48 hr, no TGF-β1): increased from 24 to 48 hr exposure
- effect on TGF-β1-increased gelatinase activity (gelatinase activity; TGF-β1 48 hr, compound 1 over the final 24 hr): little effect
- effect on TGF-β1-increased gelatinase activity (gelatinase activity; TGF-β1 with compound 1 co-incubation for 48 hr): inhibited
- calcium influx inhibition [4]: inhibits receptor-operated and voltage-gated calcium influx; also recorded: inhibit receptor-stimulated and voltage-gatedcalcium entry across cell membranes
- antiproliferative and antimetastatic activities [5]: antiproliferative and antimetastatic activities
